13 compounds from patent US9108957B2 (MITSUBISHI TANABE PHARMA CORPORATION, priority 2009, dated 2015) can be followed below.

pIC50: −log10 of the molar value.

Chain of human recombinant TPK1 (P49841 whole entry): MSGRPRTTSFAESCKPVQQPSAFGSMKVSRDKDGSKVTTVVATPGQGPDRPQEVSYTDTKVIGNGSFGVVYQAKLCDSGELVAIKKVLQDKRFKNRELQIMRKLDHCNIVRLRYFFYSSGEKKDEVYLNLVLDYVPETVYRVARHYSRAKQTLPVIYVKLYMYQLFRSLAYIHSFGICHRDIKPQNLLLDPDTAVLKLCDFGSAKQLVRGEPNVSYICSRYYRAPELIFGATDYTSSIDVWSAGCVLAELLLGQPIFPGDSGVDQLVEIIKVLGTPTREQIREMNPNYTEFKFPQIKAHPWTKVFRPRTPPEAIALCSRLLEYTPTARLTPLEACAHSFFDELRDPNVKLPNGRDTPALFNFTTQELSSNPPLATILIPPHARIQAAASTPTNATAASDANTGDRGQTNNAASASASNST

For the experiment, the target named is human recombinant TPK1 (Homo sapiens, UniProt P49841). Description: Inhibitory activity against P-GS1 phosphorylation by TPK1 (Kinase Glo luminescence). The experiment is classed as biochemical. The settings on record: 7.5 μM P-GS1, 10 μM ATP, 25° C. for 16 hours, Kinase Glo Reagent luminescent signal. As for the experimental part:
Inhibitory Activity of the Medicament of the Present Invention Against P-GS1 Phosphorylation by Bovine Cerebral TPK1
A mixture containing 100 mM HEPES-sodium hydroxide (pH 7.2), 1 mM magnesium acetate, 1 mM EGTA, 1 mM dithiothreitol (DTT), 0.02% Tween 20, 7.5 μM P-GS1, 10 μM ATP, human recombinant TPK1 and a compound shown in Table (a final mixture contained 1% DMSO deriving from a solution of a test compound prepared in the presence of 10% DMSO) was used as a reaction system. The phosphorylation was started by adding ATP, and the reaction was conducted at 25° C. for 16 hours. Then equal volume of Kinase Glo Reagent (Promega) was added to the mixture and luminescent signal from the mixture was measured. IC50 for each compound was calculated by setting the data of mixture without enzyme as 0% activity and that without compound as 100% activity.
On to `Cn1c(N2CCCN(c3ccc(F)cc3)CC2)nc(-c2ccncn2)cc1=O` [Compound A004, 2-[4-(4-fluorophenyl)-1,4-diazepan-1-yl]-3-methyl-6-(pyrimidin-4-yl)pyrimidin-4(3H)-one], for which the pIC50 is 7.45.

For the compound `Cn1c(N2CCOC(c3ccc(-c4ncon4)cc3)CC2)nc(-c2ccncn2)cc1=O` (single isomer, unassigned; (-)) [Compound A111, (−)-2-[7-[4-(1,2,4-oxadiazol-3-yl)-phenyl]-1,4-oxazepan-4-yl]-3-methyl-6-(pyrimidin-4-yl)pyrimidin-4(3H)-one], the pIC50 was 7.53.

On to `Cc1nc(-c2ccc(C3CCN(c4nc(-c5ccncn5)cc(=O)n4C)CCO3)cc2)no1` (single isomer, unassigned; (+)) [Compound A100, (+)-2-[7-[4-(5-methyl-1,2,4-oxadiazol-3-yl)-phenyl]-1,4-oxazepan-4-yl]-3-methyl-6-(pyrimidin-4-yl)pyrimidin-4(3H)-one], for which the negative logarithm of the IC50 (pIC50) is 7.82.

Turning to `Cc1noc(-c2cccc([C@H]3CN(c4nc(-c5ccncc5F)cc(=O)n4C)CCCO3)c2)n1` [Compound A032, (S)-2-[2-[3-(3-methyl-1,2,4-oxadiazol-5-yl)-phenyl]-1,4-oxazepan-4-yl]-6-(3-fluoropyridin-4-yl)-3-methylpyrimidin-4(3H)-one], the pIC50 was 7.67.

As for `CC1COCCN(c2nc(-c3ccncc3)cc(=O)n2C)C1` (stereo not shown) [Compound A088, 2-(6-methyl-1,4-oxazepan-4-yl)-3-methyl-6-(pyridin-4-yl)pyrimidin-4(3H)-one], the pIC50 was 6.75.

With `Cn1c(N2CCOC(c3ccc(-c4ncno4)cc3)CC2)nc(-c2ccncn2)cc1=O` (single isomer, unassigned; (+)) [Compound A107, (+)-2-[7-[4-(1,2,4-oxadiazol-5-yl)-phenyl]-1,4-oxazepan-4-yl]-3-methyl-6-(pyrimidin-4-yl)pyrimidin-4(3H)-one], the pIC50 is 7.64.

For the compound `Cn1c(N2CCCOCC2)nc(-c2ccncc2F)cc1=O` [Compound A001, 6-(3-fluoropyridin-4-yl)-3-methyl-2-(1,4-oxazepan-4-yl)pyrimidin-4(3H)-one], the pIC50 was 7.56.

For the compound `Cn1c(N2CCCO[C@@H](c3ccc(Br)cc3)C2)nc(-c2ccncc2)cc1=O` [Compound A021, (S)-2-[2-(4-bromophenyl)-1,4-oxazepan-4-yl]-3-methyl-6-(pyridin-4-yl)pyrimidin-4(3H)-one], the pIC50 is 7.92.

Consider `Cn1c(N2CCCO[C@H](c3ccc(C(N)=O)cc3)C2)nc(-c2ccncc2F)cc1=O` [Compound A038, (R)-2-[2-(4-aminocarbonylphenyl)-1,4-oxazepan-4-yl]-6-(3-fluoropyridin-4-yl)-3-methylpyrimidin-4(3H)-one], for which the pIC50 is 7.51.

Regarding `Cc1noc(-c2cccc([C@@H]3CN(c4nc(-c5ccncc5F)cc(=O)n4C)CCCO3)c2)n1` [Compound A059, (R)-2-[2-[3-(3-methyl-1,2,4-oxadiazol-5-yl)-phenyl]-1,4-oxazepan-4-yl]-6-(3-fluoropyridin-4-yl)-3-methylpyrimidin-4(3H)-one], the pIC50 was 6.62.

In the case of `Cn1c(N2CCCOCC2c2ccccc2)nc(-c2ccncn2)cc1=O` (stereo in doubt) [Compound A065, (S)-3-methyl-2-(3-phenyl-1,4-oxazepan-4-yl)-6-(pyrimidin-4-yl)pyrimidin-4(3H)-one], the pIC50 was 7.01.

Consider `Cn1c(N2CCOC(c3ccc(F)cc3)CC2)nc(-c2ccncn2)cc1=O` (stereo not shown) [Compound A098, 2-[7-(4-fluorophenyl)-1,4-oxazepan-4-yl]-3-methyl-6-(pyrimidin-4-yl)pyrimidin-4(3H)-one], for which the pIC50 is 7.86.

In the case of `Cn1c(N2CCOC(c3ccccc3F)CC2)nc(-c2ccncc2F)cc1=O` (stereo not shown) [Compound A014, 2-[7-(2-fluorophenyl)-1,4-oxazepan-4-yl]-6-(3-fluoropyridin-4-yl)-3-methylpyrimidin-4(3H)-one], the pIC50 is 8.09.
